The assay concerns MV-4-11 cells. Put plainly: Gene expression microarray analysis (Affymetrix PrimeView) and GSEA. The format is cell-based, human. Set-up: RFU PODN (11730768_x_at) / Fold change /veh PODN (11730768_x_at) / RFU LINC00158 (11744669_a_at) / Fold change /veh LINC00158 (11744669_a_at) / RFU DUSP10 (11751237_a_at) / Fold change /veh DUSP10 (11751237_a_at) / RFU ID3 (11757404_x_at) / Fold change /veh ID3 (11757404_x_at) / RFU PLEKHG5 (11737974_s_at) / Fold change /veh PLEKHG5 (11737974_s_at) / RFU LRRC4B (11730491_at) / Fold change /veh LRRC4B (11730491_at) / RFU GIMAP4 (11747438_a_at) / Fold change /veh GIMAP4 (11747438_a_at) / RFU KRT8 (11758183_x_at) / Fold change /veh KRT8 (11758183_x_at) / RFU CNN1 (11734310_a_at) / Fold change /veh CNN1 (11734310_a_at) / RFU VPS37D (11726825_at) / Fold change /veh VPS37D (11726825_at) / RFU C10orf10 (11716522_x_at) / Fold change /veh C10orf10 (11716522_x_at) / RFU KIR2DL2 /// KIR2DL4 /// KIR2DL5A /// KIR2DL5B /// KIR2DS1 /// KIR2DS2 /// KIR2DS3 /// KIR2DS4 /// KIR3DL3 /// KIR3DL3 /// KIR3DS1 (11738374_at) / Fold change /veh KIR2DL2 /// KIR2DL4 /// KIR2DL5A /// KIR2DL5B /// KIR2DS1 /// KIR2DS2 /// KIR2DS3 /// KIR2DS4 /// KIR3DL3 /// KIR3DL3 /// KIR3DS1 (11738374_at) / RFU C1QL1 (11718748_at) / Fold change /veh C1QL1 (11718748_at) / RFU TMPRSS4 (11747572_a_at) / Fold change /veh TMPRSS4 (11747572_a_at) / RFU HAMP (11756126_x_at) / Fold change /veh HAMP (11756126_x_at) / RFU RNFT2 (11725882_a_at) / Fold change /veh RNFT2 (11725882_a_at) / RFU NR4A2 (11747474_a_at) / Fold change /veh NR4A2 (11747474_a_at) / RFU ABCC12 (11746883_a_at) / Fold change /veh ABCC12 (11746883_a_at) / RFU TMEM136 (11760407_x_at) / Fold change /veh TMEM136 (11760407_x_at) / RFU CLDN22 /// WWC2 (11732394_at) / Fold change /veh CLDN22 /// WWC2 (11732394_at) / RFU HLA-DPB1 (11760878_x_at) / Fold change /veh HLA-DPB1 (11760878_x_at) / RFU SPINT1 (11716480_a_at) / Fold change /veh SPINT1 (11716480_a_at) / RFU GAP43 (11754022_s_at) / Fold change /veh GAP43 (11754022_s_at) / RFU A4GNT (11735810_at) / Fold change /veh A4GNT (11735810_at) / RFU PRB3 (11715151_x_at) / Fold change /veh PRB3 (11715151_x_at) / RFU TUBB4B (11761932_at) / Fold change /veh TUBB4B (11761932_at) / RFU CAPN14 (11732068_a_at) / Fold change /veh CAPN14 (11732068_a_at) / RFU TMCC2 (11721928_a_at) / Fold change /veh TMCC2 (11721928_a_at) / RFU IRGQ (11745062_a_at) / Fold change /veh IRGQ (11745062_a_at) / RFU FAM174B (11720279_a_at) / Fold change /veh FAM174B (11720279_a_at) / RFU TMPRSS4 (11748680_a_at) / Fold change /veh TMPRSS4 (11748680_a_at) / RFU FAM212B (11763350_a_at) / Fold change /veh FAM212B (11763350_a_at) / RFU PLEKHG5 (11743358_a_at) / Fold change /veh PLEKHG5 (11743358_a_at) / RFU ZSCAN30 (11745921_a_at) / Fold change /veh ZSCAN30 (11745921_a_at) / RFU CMKLR1 (11741424_a_at) / Fold change /veh CMKLR1 (11741424_a_at) / RFU LOC101060620 /// MAPK8IP1 (11723275_at) / Fold change /veh LOC101060620 /// MAPK8IP1 (11723275_at) / RFU SPTSSB (11747773_x_at) / Fold change /veh SPTSSB (11747773_x_at) / RFU PRSS12 (11739890_at) / Fold change /veh PRSS12 (11739890_at) / RFU BIN1 (11741810_x_at) / Fold change /veh BIN1 (11741810_x_at) / RFU WNT11 (11732464_a_at) / Fold change /veh WNT11 (11732464_a_at) / RFU C10orf10 (11716521_a_at) / Fold change /veh C10orf10 (11716521_a_at) / RFU C5orf56 (11738089_at) / Fold change /veh C5orf56 (11738089_at) / RFU CYB561 (11721691_x_at) / Fold change /veh CYB561 (11721691_x_at) / RFU ANKRD19P (11752326_a_at) / Fold change /veh ANKRD19P (11752326_a_at) / RFU OR2T12 /// OR2T33 /// OR2T8 (11738714_s_at) / Fold change /veh OR2T12 /// OR2T33 /// OR2T8 (11738714_s_at) / RFU VCAN (11748164_a_at) / Fold change /veh VCAN (11748164_a_at) / RFU JSRP1 (11732532_at) / Fold change /veh JSRP1 (11732532_at) / RFU KRTAP10-11 (11738290_x_at) / Fold change /veh KRTAP10-11 (11738290_x_at) / RFU MYO3A (11730013_a_at) / Fold change /veh MYO3A (11730013_a_at) / RFU EBF3 (11725865_a_at) / Fold change /veh EBF3 (11725865_a_at) / RFU CAMK2N1 (11719241_x_at) / Fold change /veh CAMK2N1 (11719241_x_at) / RFU C5orf56 (11738088_a_at) / Fold change /veh C5orf56 (11738088_a_at) / RFU OLFML3 (11715873_a_at) / Fold change /veh OLFML3 (11715873_a_at) / RFU LOC100653217 /// NTM (11731650_a_at) / Fold change /veh LOC100653217 /// NTM (11731650_a_at) / RFU MAPK11 (11762145_a_at) / Fold change /veh MAPK11 (11762145_a_at) / RFU FIZ1 (11724087_x_at) / Fold change /veh FIZ1 (11724087_x_at) / RFU OASL (11726364_x_at) / Fold change /veh OASL (11726364_x_at) / RFU SOX15 (11748057_x_at) / Fold change /veh SOX15 (11748057_x_at) / RFU CD79A (11719716_a_at) / Fold change /veh CD79A (11719716_a_at) / RFU HIST1H1D (11736915_at) / Fold change /veh HIST1H1D (11736915_at) / RFU CASKIN2 (11723855_a_at) / Fold change /veh CASKIN2 (11723855_a_at) / RFU LOC730098 (11760151_x_at) / Fold change /veh LOC730098 (11760151_x_at) / RFU OR4N2 (11742367_at) / Fold change /veh OR4N2 (11742367_at) / RFU PRRT2 (11749266_a_at) / Fold change /veh PRRT2 (11749266_a_at) / RFU SNX32 (11753110_a_at) / Fold change /veh SNX32 (11753110_a_at) / RFU CDHR5 (11726645_a_at) / Fold change /veh CDHR5 (11726645_a_at) / RFU RCAN1 (11760418_a_at) / Fold change /veh RCAN1 (11760418_a_at) / RFU FAM167A (11723789_a_at) / Fold change /veh FAM167A (11723789_a_at) / RFU FAM26E (11764081_at) / Fold change /veh FAM26E (11764081_at) / RFU ISYNA1 (11749810_s_at) / Fold change /veh ISYNA1 (11749810_s_at) / RFU ACY1 (11761880_at) / Fold change /veh ACY1 (11761880_at) / RFU 11764098_at / Fold change /veh 11764098_at / RFU SAMD14 (11745864_x_at) / Fold change /veh SAMD14 (11745864_x_at) / RFU NPB (11741838_a_at) / Fold change /veh NPB (11741838_a_at) / RFU TMPRSS6 (11731388_a_at) / Fold change /veh TMPRSS6 (11731388_a_at) / RFU KRTAP10-2 (11738614_at) / Fold change /veh KRTAP10-2 (11738614_at) / RFU ARHGAP8 /// PRR5-ARHGAP8 (11727945_x_at) / Fold change /veh ARHGAP8 /// PRR5-ARHGAP8 (11727945_x_at) / RFU KRTAP5-7 /// NADSYN1 (11734609_at) / Fold change /veh KRTAP5-7 /// NADSYN1 (11734609_at) / RFU RASL12 (11751679_a_at) / Fold change /veh RASL12 (11751679_a_at) / RFU CDKN2B (11736163_a_at) / Fold change /veh CDKN2B (11736163_a_at) / RFU PRF1 (11729649_at) / Fold change /veh PRF1 (11729649_at) / RFU, ZNF638 /// ZNF638-IT1 / Fold change vs veh, ZNF638 /// ZNF638-IT1 / RFU, PANK3 / Fold change vs veh, PANK3 / RFU, SH3YL1 / Fold change vs veh, SH3YL1 / RFU, ZEB2 / Fold change vs veh, ZEB2 / RFU, NRIP1 / Fold change vs veh, NRIP1 / RFU, PTTG1IP / Fold change vs veh, PTTG1IP / RFU, CAPN2 / Fold change vs veh, CAPN2 / RFU, MED14 / Fold change vs veh, MED14 / RFU, SNORA58 / Fold change vs veh, SNORA58 / RFU, C1orf63 / Fold change vs veh, C1orf63 / RFU, LRRFIP1 / Fold change vs veh, LRRFIP1 / RFU, NDUFAF7 / Fold change vs veh, NDUFAF7 / RFU, SLC12A2 / Fold change vs veh, SLC12A2 / RFU, IBTK / Fold change vs veh, IBTK / RFU, ESF1 / Fold change vs veh, ESF1 / Fold change vs veh, TMEM50B / RFU, TAOK1 / Fold change vs veh, TAOK1 / RFU, ACBD3 / Fold change vs veh, ACBD3 / RFU, TMA16 / Fold change vs veh, TMA16 / RFU, RWDD3 / Fold change vs veh, RWDD3 / RFU, BCAT1 / Fold change vs veh, BCAT1 / RFU, EDEM3 / Fold change vs veh, EDEM3 / RFU, TMEM33 / Fold change vs veh, TMEM33 / RFU, WDR75 / Fold change vs veh, WDR75 / RFU, AHCTF1 / Fold change vs veh, AHCTF1 / RFU, TFRC / Fold change vs veh, TFRC / RFU, ZDHHC17 / Fold change vs veh, ZDHHC17 / RFU, NOM1 / Fold change vs veh, NOM1 / RFU, ARL8B / Fold change vs veh, ARL8B / RFU, ZBTB11 / Fold change vs veh, ZBTB11 / RFU, TAMM41 / Fold change vs veh, TAMM41 / RFU, KIAA1704 /// LOC100996395 / Fold change vs veh, KIAA1704 /// LOC100996395 / RFU, ING1 / Fold change vs veh, ING1 / RFU, TRMT61B / Fold change vs veh, TRMT61B / RFU, FUBP3 / Fold change vs veh, FUBP3 / RFU, TP53 / Fold change vs veh, TP53 / RFU, TNKS2 / Fold change vs veh, TNKS2 / RFU, ZFP14 / Fold change vs veh, ZFP14 / RFU, ACTR2 / Fold change vs veh, ACTR2 / RFU, PPP3R1 / Fold change vs veh, PPP3R1 / RFU, PIK3R1 / Fold change vs veh, PIK3R1 / RFU, HNRNPA1 / Fold change vs veh, HNRNPA1 / RFU, RNF170 / Fold change vs veh, RNF170 / RFU, ZNF28 / Fold change vs veh, ZNF28 / RFU, RNGTT / Fold change vs veh, RNGTT / RFU, OGT / Fold change vs veh, OGT / RFU, BRD1 / Fold change vs veh, BRD1 / RFU, MARS / Fold change vs veh, MARS / RFU, ZNF655 / Fold change vs veh, ZNF655 / RFU, FAHD1 / Fold change vs veh, FAHD1 / RFU, BDP1 / Fold change vs veh, BDP1 / RFU, LRRCC1 / Fold change vs veh, LRRCC1 / RFU, ARID1A / Fold change vs veh, ARID1A / RFU, ZNF146 / Fold change vs veh, ZNF146 / RFU, ZNF330 / Fold change vs veh, ZNF330 / RFU, GPN3 / Fold change vs veh, GPN3 / RFU, C9orf123 / Fold change vs veh, C9orf123 / RFU, N4BP2L2 / Fold change vs veh, N4BP2L2 / RFU, ARFIP1 / Fold change vs veh, ARFIP1 / RFU, FAM179B / Fold change vs veh, FAM179B / RFU, BCL10 / Fold change vs veh, BCL10 / RFU, UHRF1BP1L / Fold change vs veh, UHRF1BP1L / RFU, BET1 / Fold change vs veh, BET1 / RFU, CNOT2 / Fold change vs veh, CNOT2 / RFU, ZNF268 / Fold change vs veh, ZNF268 / Fold change vs veh, ZNF507 / RFU, DGCR2 / Fold change vs veh, DGCR2 / RFU, WDSUB1 / Fold change vs veh, WDSUB1 / Fold change vs veh, HSP90B1 /// MIR3652 / RFU, ADSS / Fold change vs veh, ADSS / RFU, GK / Fold change vs veh, GK / RFU, ZNF148 / Fold change vs veh, ZNF148 / RFU, TAF9 / Fold change vs veh, TAF9 / RFU, SLC1A5 / Fold change vs veh, SLC1A5 / RFU, SLMO2 / Fold change vs veh, SLMO2 / RFU, ABCC4 / Fold change vs veh, ABCC4 / RFU, LOC101060439 /// RAP1B / Fold change vs veh, LOC101060439 /// RAP1B / RFU, RFX7 / Fold change vs veh, RFX7 / RFU, GTPBP10 / Fold change vs veh, GTPBP10 / RFU, CNEP1R1 / Fold change vs veh, CNEP1R1 / RFU, BIVM-ERCC5 /// ERCC5 / Fold change vs veh, BIVM-ERCC5 /// ERCC5 / RFU, ILF3 / Fold change vs veh, ILF3 / RFU 11762660_at / Fold change /veh 11762660_at / RFU VCAN (11757783_s_at) / Fold change /veh VCAN (11757783_s_at) / RFU DDX43 (11728927_at) / Fold change /veh DDX43 (11728927_at) / RFU KRT8 (11758188_x_at) / Fold change /veh KRT8 (11758188_x_at) / RFU NKD1 (11759106_at) / Fold change /veh NKD1 (11759106_at) / RFU SRD5A1 (11742802_a_at) / Fold change /veh SRD5A1 (11742802_a_at) / RFU TPSAB1 /// TPSB2 (11721975_s_at) / Fold change /veh TPSAB1 /// TPSB2 (11721975_s_at) / RFU GSTM3 (11746129_a_at) / Fold change /veh GSTM3 (11746129_a_at) / RFU IL23R (11737362_x_at) / Fold change /veh IL23R (11737362_x_at) / RFU TMEM51 (11727254_a_at) / Fold change /veh TMEM51 (11727254_a_at) / RFU PIWIL2 (11732686_x_at) / Fold change /veh PIWIL2 (11732686_x_at) / RFU ORM1 (11744905_x_at) / Fold change /veh ORM1 (11744905_x_at) / RFU CCDC152 (11743942_at) / Fold change /veh CCDC152 (11743942_at) / RFU ECM1 (11717891_a_at) / Fold change /veh ECM1 (11717891_a_at) / RFU IL23R (11748794_a_at) / Fold change /veh IL23R (11748794_a_at) / RFU TNFAIP8L3 (11732012_x_at) / Fold change /veh TNFAIP8L3 (11732012_x_at) / RFU MBOAT4 (11741988_at) / Fold change /veh MBOAT4 (11741988_at) / RFU 11764193_at / Fold change /veh 11764193_at / RFU TMEM53 (11763286_at) / Fold change /veh TMEM53 (11763286_at) / RFU MAGEB2 (11727129_at) / Fold change /veh MAGEB2 (11727129_at) / RFU TMEM200A (11744735_a_at) / Fold change /veh TMEM200A (11744735_a_at) / RFU CCDC152 (11751479_a_at) / Fold change /veh CCDC152 (11751479_a_at) / RFU FAM211A (11726209_a_at) / Fold change /veh FAM211A (11726209_a_at) / RFU RGS16 (11746705_a_at) / Fold change /veh RGS16 (11746705_a_at) / RFU VCAN (11755009_s_at) / Fold change /veh VCAN (11755009_s_at) / RFU RHOB (11743442_s_at) / Fold change /veh RHOB (11743442_s_at) / RFU RGS16 (11720943_a_at) / Fold change /veh RGS16 (11720943_a_at) / RFU RGS16 (11720944_at) / Fold change /veh RGS16 (11720944_at) / RFU, VPS4B / Fold change vs veh, VPS4B / RFU, CREB1 / Fold change vs veh, CREB1 / RFU, DNAJC13 / Fold change vs veh, DNAJC13 / RFU, GNAQ / Fold change vs veh, GNAQ / RFU, CDK5R1 / Fold change vs veh, CDK5R1 / RFU, ZRANB3 / Fold change vs veh, ZRANB3 / RFU, CUL4A / Fold change vs veh, CUL4A / RFU, CCNY / Fold change vs veh, CCNY / RFU, UFL1 / Fold change vs veh, UFL1 / RFU, COG3 / Fold change vs veh, COG3 / RFU, DIAPH2 / Fold change vs veh, DIAPH2 / RFU, SKA2 / Fold change vs veh, SKA2 / RFU, AFF3 / Fold change vs veh, AFF3 / RFU, LMF1 / Fold change vs veh, LMF1 / RFU, IPO11 / Fold change vs veh, IPO11 / RFU, DFFB / Fold change vs veh, DFFB / RFU, FOXP1 / Fold change vs veh, FOXP1 / RFU, CARD8 / Fold change vs veh, CARD8 / RFU, STRN3 / Fold change vs veh, STRN3 / RFU, ADK / Fold change vs veh, ADK / RFU, RASSF2 / Fold change vs veh, RASSF2 / RFU, WIPF1 / Fold change vs veh, WIPF1 / RFU, LARP1B / Fold change vs veh, LARP1B / RFU, RASA1 / Fold change vs veh, RASA1 / RFU, RB1 / Fold change vs veh, RB1 / RFU, PPFIA1 / Fold change vs veh, PPFIA1 / RFU, MAT2A / Fold change vs veh, MAT2A / RFU, CCT5 / Fold change vs veh, CCT5 / RFU, WDR92 / Fold change vs veh, WDR92 / RFU, CUX1 / Fold change vs veh, CUX1 / RFU, TTC7A / Fold change vs veh, TTC7A / RFU, TMEM135 / Fold change vs veh, TMEM135 / RFU, DEPTOR / Fold change vs veh, DEPTOR / RFU, CPM / Fold change vs veh, CPM / RFU, DNAJB6 / Fold change vs veh, DNAJB6 / RFU, CACNA2D3 / Fold change vs veh, CACNA2D3 / RFU, DTX4 / Fold change vs veh, DTX4 / RFU, TFCP2 / Fold change vs veh, TFCP2 / RFU, GMCL1 /// GMCL1P1 / Fold change vs veh, GMCL1 /// GMCL1P1 / RFU, AEBP2 / Fold change vs veh, AEBP2 / RFU, SNHG1 /// SNORD22 /// SNORD25 /// SNORD26 /// SNORD27 /// SNORD28 /// SNORD29 /// SNORD31 / Fold change vs veh, SNHG1 /// SNORD22 /// SNORD25 /// SNORD26 /// SNORD27 /// SNORD28 /// SNORD29 /// SNORD31 / Fold change (Aza/veh), C12orf56 (ProbeSet 11735607_a_at) / Fold change (ACY-1035/veh), C12orf56 (ProbeSet 11735607_a_at) / Fold change (Aza/veh), FGFR1OP (ProbeSet 11751329_s_at) / Fold change (ACY-1035/veh), FGFR1OP (ProbeSet 11751329_s_at) / Fold change (Aza/veh), VPS36 (ProbeSet 11739960_a_at) / Fold change (ACY-1035/veh), VPS36 (ProbeSet 11739960_a_at) / RFU SYPL1 (11715823_x_at) / Fold change /veh SYPL1 (11715823_x_at) / RFU IGFBP7 (11715501_s_at) / Fold change /veh IGFBP7 (11715501_s_at) / RFU REEP3 (11722064_at) / Fold change /veh REEP3 (11722064_at) / RFU IGLL1 (11728026_x_at) / Fold change /veh IGLL1 (11728026_x_at): dose or concentration left out as unconfirmed. The note with it: ProbeSet 11721559_s_at; LIST B.

Turning to `Nc1ncn([C@@H]2O[C@H](CO)[C@@H](O)[C@H]2O)c(=O)n1` [azacitidine], the “Fold change vs veh, ZNF638 /// ZNF638-IT1” value was 0.91.

The values above are taken from article PMC5218480 (PLoS ONE, 2017).
